The record followed here is the NIST ThermoML archive (doi:10.1021/acs.jced.7b01085).

A short description of data set [1]: Molar enthalpy of transition or fusion. Particulars: Crystal; DSC.
The conditions of data set [2]: Crystal; DSC.

± gives the expanded uncertainty stated by the source.

Consider `c1ccc2[nH]nnc2c1` [benzotriazole], for which the “Molar enthalpy of transition or fusion” value in data set [1] was 15.2 ± 0.7 kJ/mol. Also, in data set [2], the Triple point temperature turned out to be 369.26 ± 1.2 K.
